Data on 1 compound can be found in article PMC5218480 (PLoS ONE, 2017).

The structures appear in SMILES notation.

For this test, the system named is MV-4-11 cells. Briefly: Gene expression microarray analysis (Affymetrix PrimeView) and GSEA. Also noted: RFU PODN (11730768_x_at) / Fold change /veh PODN (11730768_x_at) / RFU LINC00158 (11744669_a_at) / Fold change /veh LINC00158 (11744669_a_at) / RFU DUSP10 (11751237_a_at) / Fold change /veh DUSP10 (11751237_a_at) / RFU ID3 (11757404_x_at) / Fold change /veh ID3 (11757404_x_at) / RFU PLEKHG5 (11737974_s_at) / Fold change /veh PLEKHG5 (11737974_s_at) / RFU LRRC4B (11730491_at) / Fold change /veh LRRC4B (11730491_at) / RFU GIMAP4 (11747438_a_at) / Fold change /veh GIMAP4 (11747438_a_at) / RFU KRT8 (11758183_x_at) / Fold change /veh KRT8 (11758183_x_at) / RFU CNN1 (11734310_a_at) / Fold change /veh CNN1 (11734310_a_at) / RFU VPS37D (11726825_at) / Fold change /veh VPS37D (11726825_at) / RFU C10orf10 (11716522_x_at) / Fold change /veh C10orf10 (11716522_x_at) / RFU KIR2DL2 /// KIR2DL4 /// KIR2DL5A /// KIR2DL5B /// KIR2DS1 /// KIR2DS2 /// KIR2DS3 /// KIR2DS4 /// KIR3DL3 /// KIR3DL3 /// KIR3DS1 (11738374_at) / Fold change /veh KIR2DL2 /// KIR2DL4 /// KIR2DL5A /// KIR2DL5B /// KIR2DS1 /// KIR2DS2 /// KIR2DS3 /// KIR2DS4 /// KIR3DL3 /// KIR3DL3 /// KIR3DS1 (11738374_at) / RFU C1QL1 (11718748_at) / Fold change /veh C1QL1 (11718748_at) / RFU TMPRSS4 (11747572_a_at) / Fold change /veh TMPRSS4 (11747572_a_at) / RFU HAMP (11756126_x_at) / Fold change /veh HAMP (11756126_x_at) / RFU RNFT2 (11725882_a_at) / Fold change /veh RNFT2 (11725882_a_at) / RFU NR4A2 (11747474_a_at) / Fold change /veh NR4A2 (11747474_a_at) / RFU ABCC12 (11746883_a_at) / Fold change /veh ABCC12 (11746883_a_at) / RFU TMEM136 (11760407_x_at) / Fold change /veh TMEM136 (11760407_x_at) / RFU CLDN22 /// WWC2 (11732394_at) / Fold change /veh CLDN22 /// WWC2 (11732394_at) / RFU HLA-DPB1 (11760878_x_at) / Fold change /veh HLA-DPB1 (11760878_x_at) / RFU SPINT1 (11716480_a_at) / Fold change /veh SPINT1 (11716480_a_at) / RFU GAP43 (11754022_s_at) / Fold change /veh GAP43 (11754022_s_at) / RFU A4GNT (11735810_at) / Fold change /veh A4GNT (11735810_at) / RFU PRB3 (11715151_x_at) / Fold change /veh PRB3 (11715151_x_at) / RFU TUBB4B (11761932_at) / Fold change /veh TUBB4B (11761932_at) / RFU CAPN14 (11732068_a_at) / Fold change /veh CAPN14 (11732068_a_at) / RFU TMCC2 (11721928_a_at) / Fold change /veh TMCC2 (11721928_a_at) / RFU IRGQ (11745062_a_at) / Fold change /veh IRGQ (11745062_a_at) / RFU FAM174B (11720279_a_at) / Fold change /veh FAM174B (11720279_a_at) / RFU TMPRSS4 (11748680_a_at) / Fold change /veh TMPRSS4 (11748680_a_at) / RFU FAM212B (11763350_a_at) / Fold change /veh FAM212B (11763350_a_at) / RFU PLEKHG5 (11743358_a_at) / Fold change /veh PLEKHG5 (11743358_a_at) / RFU ZSCAN30 (11745921_a_at) / Fold change /veh ZSCAN30 (11745921_a_at) / RFU CMKLR1 (11741424_a_at) / Fold change /veh CMKLR1 (11741424_a_at) / RFU LOC101060620 /// MAPK8IP1 (11723275_at) / Fold change /veh LOC101060620 /// MAPK8IP1 (11723275_at) / RFU SPTSSB (11747773_x_at) / Fold change /veh SPTSSB (11747773_x_at) / RFU PRSS12 (11739890_at) / Fold change /veh PRSS12 (11739890_at) / RFU BIN1 (11741810_x_at) / Fold change /veh BIN1 (11741810_x_at) / RFU WNT11 (11732464_a_at) / Fold change /veh WNT11 (11732464_a_at) / RFU C10orf10 (11716521_a_at) / Fold change /veh C10orf10 (11716521_a_at) / RFU C5orf56 (11738089_at) / Fold change /veh C5orf56 (11738089_at) / RFU CYB561 (11721691_x_at) / Fold change /veh CYB561 (11721691_x_at) / RFU ANKRD19P (11752326_a_at) / Fold change /veh ANKRD19P (11752326_a_at) / RFU OR2T12 /// OR2T33 /// OR2T8 (11738714_s_at) / Fold change /veh OR2T12 /// OR2T33 /// OR2T8 (11738714_s_at) / RFU VCAN (11748164_a_at) / Fold change /veh VCAN (11748164_a_at) / RFU JSRP1 (11732532_at) / Fold change /veh JSRP1 (11732532_at) / RFU KRTAP10-11 (11738290_x_at) / Fold change /veh KRTAP10-11 (11738290_x_at) / RFU MYO3A (11730013_a_at) / Fold change /veh MYO3A (11730013_a_at) / RFU EBF3 (11725865_a_at) / Fold change /veh EBF3 (11725865_a_at) / RFU CAMK2N1 (11719241_x_at) / Fold change /veh CAMK2N1 (11719241_x_at) / RFU C5orf56 (11738088_a_at) / Fold change /veh C5orf56 (11738088_a_at) / RFU OLFML3 (11715873_a_at) / Fold change /veh OLFML3 (11715873_a_at) / RFU LOC100653217 /// NTM (11731650_a_at) / Fold change /veh LOC100653217 /// NTM (11731650_a_at) / RFU MAPK11 (11762145_a_at) / Fold change /veh MAPK11 (11762145_a_at) / RFU FIZ1 (11724087_x_at) / Fold change /veh FIZ1 (11724087_x_at) / RFU OASL (11726364_x_at) / Fold change /veh OASL (11726364_x_at) / RFU SOX15 (11748057_x_at) / Fold change /veh SOX15 (11748057_x_at) / RFU CD79A (11719716_a_at) / Fold change /veh CD79A (11719716_a_at) / RFU HIST1H1D (11736915_at) / Fold change /veh HIST1H1D (11736915_at) / RFU CASKIN2 (11723855_a_at) / Fold change /veh CASKIN2 (11723855_a_at) / RFU LOC730098 (11760151_x_at) / Fold change /veh LOC730098 (11760151_x_at) / RFU OR4N2 (11742367_at) / Fold change /veh OR4N2 (11742367_at) / RFU PRRT2 (11749266_a_at) / Fold change /veh PRRT2 (11749266_a_at) / RFU SNX32 (11753110_a_at) / Fold change /veh SNX32 (11753110_a_at) / RFU CDHR5 (11726645_a_at) / Fold change /veh CDHR5 (11726645_a_at) / RFU RCAN1 (11760418_a_at) / Fold change /veh RCAN1 (11760418_a_at) / RFU FAM167A (11723789_a_at) / Fold change /veh FAM167A (11723789_a_at) / RFU FAM26E (11764081_at) / Fold change /veh FAM26E (11764081_at) / RFU ISYNA1 (11749810_s_at) / Fold change /veh ISYNA1 (11749810_s_at) / RFU ACY1 (11761880_at) / Fold change /veh ACY1 (11761880_at) / RFU 11764098_at / Fold change /veh 11764098_at / RFU SAMD14 (11745864_x_at) / Fold change /veh SAMD14 (11745864_x_at) / RFU NPB (11741838_a_at) / Fold change /veh NPB (11741838_a_at) / RFU TMPRSS6 (11731388_a_at) / Fold change /veh TMPRSS6 (11731388_a_at) / RFU KRTAP10-2 (11738614_at) / Fold change /veh KRTAP10-2 (11738614_at) / RFU ARHGAP8 /// PRR5-ARHGAP8 (11727945_x_at) / Fold change /veh ARHGAP8 /// PRR5-ARHGAP8 (11727945_x_at) / RFU KRTAP5-7 /// NADSYN1 (11734609_at) / Fold change /veh KRTAP5-7 /// NADSYN1 (11734609_at) / RFU RASL12 (11751679_a_at) / Fold change /veh RASL12 (11751679_a_at) / RFU CDKN2B (11736163_a_at) / Fold change /veh CDKN2B (11736163_a_at) / RFU PRF1 (11729649_at) / Fold change /veh PRF1 (11729649_at) / RFU, ZNF638 /// ZNF638-IT1 / Fold change vs veh, ZNF638 /// ZNF638-IT1 / RFU, PANK3 / Fold change vs veh, PANK3 / RFU, SH3YL1 / Fold change vs veh, SH3YL1 / RFU, ZEB2 / Fold change vs veh, ZEB2 / RFU, NRIP1 / Fold change vs veh, NRIP1 / RFU, PTTG1IP / Fold change vs veh, PTTG1IP / RFU, CAPN2 / Fold change vs veh, CAPN2 / RFU, MED14 / Fold change vs veh, MED14 / RFU, SNORA58 / Fold change vs veh, SNORA58 / RFU, C1orf63 / Fold change vs veh, C1orf63 / RFU, LRRFIP1 / Fold change vs veh, LRRFIP1 / RFU, NDUFAF7 / Fold change vs veh, NDUFAF7 / RFU, SLC12A2 / Fold change vs veh, SLC12A2 / RFU, IBTK / Fold change vs veh, IBTK / RFU, ESF1 / Fold change vs veh, ESF1 / Fold change vs veh, TMEM50B / RFU, TAOK1 / Fold change vs veh, TAOK1 / RFU, ACBD3 / Fold change vs veh, ACBD3 / RFU, TMA16 / Fold change vs veh, TMA16 / RFU, RWDD3 / Fold change vs veh, RWDD3 / RFU, BCAT1 / Fold change vs veh, BCAT1 / RFU, EDEM3 / Fold change vs veh, EDEM3 / RFU, TMEM33 / Fold change vs veh, TMEM33 / RFU, WDR75 / Fold change vs veh, WDR75 / RFU, AHCTF1 / Fold change vs veh, AHCTF1 / RFU, TFRC / Fold change vs veh, TFRC / RFU, ZDHHC17 / Fold change vs veh, ZDHHC17 / RFU, NOM1 / Fold change vs veh, NOM1 / RFU, ARL8B / Fold change vs veh, ARL8B / RFU, ZBTB11 / Fold change vs veh, ZBTB11 / RFU, TAMM41 / Fold change vs veh, TAMM41 / RFU, KIAA1704 /// LOC100996395 / Fold change vs veh, KIAA1704 /// LOC100996395 / RFU, ING1 / Fold change vs veh, ING1 / RFU, TRMT61B / Fold change vs veh, TRMT61B / RFU, FUBP3 / Fold change vs veh, FUBP3 / RFU, TP53 / Fold change vs veh, TP53 / RFU, TNKS2 / Fold change vs veh, TNKS2 / RFU, ZFP14 / Fold change vs veh, ZFP14 / RFU, ACTR2 / Fold change vs veh, ACTR2 / RFU, PPP3R1 / Fold change vs veh, PPP3R1 / RFU, PIK3R1 / Fold change vs veh, PIK3R1 / RFU, HNRNPA1 / Fold change vs veh, HNRNPA1 / RFU, RNF170 / Fold change vs veh, RNF170 / RFU, ZNF28 / Fold change vs veh, ZNF28 / RFU, RNGTT / Fold change vs veh, RNGTT / RFU, OGT / Fold change vs veh, OGT / RFU, BRD1 / Fold change vs veh, BRD1 / RFU, MARS / Fold change vs veh, MARS / RFU, ZNF655 / Fold change vs veh, ZNF655 / RFU, FAHD1 / Fold change vs veh, FAHD1 / RFU, BDP1 / Fold change vs veh, BDP1 / RFU, LRRCC1 / Fold change vs veh, LRRCC1 / RFU, ARID1A / Fold change vs veh, ARID1A / RFU, ZNF146 / Fold change vs veh, ZNF146 / RFU, ZNF330 / Fold change vs veh, ZNF330 / RFU, GPN3 / Fold change vs veh, GPN3 / RFU, C9orf123 / Fold change vs veh, C9orf123 / RFU, N4BP2L2 / Fold change vs veh, N4BP2L2 / RFU, ARFIP1 / Fold change vs veh, ARFIP1 / RFU, FAM179B / Fold change vs veh, FAM179B / RFU, BCL10 / Fold change vs veh, BCL10 / RFU, UHRF1BP1L / Fold change vs veh, UHRF1BP1L / RFU, BET1 / Fold change vs veh, BET1 / RFU, CNOT2 / Fold change vs veh, CNOT2 / RFU, ZNF268 / Fold change vs veh, ZNF268 / Fold change vs veh, ZNF507 / RFU, DGCR2 / Fold change vs veh, DGCR2 / RFU, WDSUB1 / Fold change vs veh, WDSUB1 / Fold change vs veh, HSP90B1 /// MIR3652 / RFU, ADSS / Fold change vs veh, ADSS / RFU, GK / Fold change vs veh, GK / RFU, ZNF148 / Fold change vs veh, ZNF148 / RFU, TAF9 / Fold change vs veh, TAF9 / RFU, SLC1A5 / Fold change vs veh, SLC1A5 / RFU, SLMO2 / Fold change vs veh, SLMO2 / RFU, ABCC4 / Fold change vs veh, ABCC4 / RFU, LOC101060439 /// RAP1B / Fold change vs veh, LOC101060439 /// RAP1B / RFU, RFX7 / Fold change vs veh, RFX7 / RFU, GTPBP10 / Fold change vs veh, GTPBP10 / RFU, CNEP1R1 / Fold change vs veh, CNEP1R1 / RFU, BIVM-ERCC5 /// ERCC5 / Fold change vs veh, BIVM-ERCC5 /// ERCC5 / RFU, ILF3 / Fold change vs veh, ILF3 / RFU 11762660_at / Fold change /veh 11762660_at / RFU VCAN (11757783_s_at) / Fold change /veh VCAN (11757783_s_at) / RFU DDX43 (11728927_at) / Fold change /veh DDX43 (11728927_at) / RFU KRT8 (11758188_x_at) / Fold change /veh KRT8 (11758188_x_at) / RFU NKD1 (11759106_at) / Fold change /veh NKD1 (11759106_at) / RFU SRD5A1 (11742802_a_at) / Fold change /veh SRD5A1 (11742802_a_at) / RFU TPSAB1 /// TPSB2 (11721975_s_at) / Fold change /veh TPSAB1 /// TPSB2 (11721975_s_at) / RFU GSTM3 (11746129_a_at) / Fold change /veh GSTM3 (11746129_a_at) / RFU IL23R (11737362_x_at) / Fold change /veh IL23R (11737362_x_at) / RFU TMEM51 (11727254_a_at) / Fold change /veh TMEM51 (11727254_a_at) / RFU PIWIL2 (11732686_x_at) / Fold change /veh PIWIL2 (11732686_x_at) / RFU ORM1 (11744905_x_at) / Fold change /veh ORM1 (11744905_x_at) / RFU CCDC152 (11743942_at) / Fold change /veh CCDC152 (11743942_at) / RFU ECM1 (11717891_a_at) / Fold change /veh ECM1 (11717891_a_at) / RFU IL23R (11748794_a_at) / Fold change /veh IL23R (11748794_a_at) / RFU TNFAIP8L3 (11732012_x_at) / Fold change /veh TNFAIP8L3 (11732012_x_at) / RFU MBOAT4 (11741988_at) / Fold change /veh MBOAT4 (11741988_at) / RFU 11764193_at / Fold change /veh 11764193_at / RFU TMEM53 (11763286_at) / Fold change /veh TMEM53 (11763286_at) / RFU MAGEB2 (11727129_at) / Fold change /veh MAGEB2 (11727129_at) / RFU TMEM200A (11744735_a_at) / Fold change /veh TMEM200A (11744735_a_at) / RFU CCDC152 (11751479_a_at) / Fold change /veh CCDC152 (11751479_a_at) / RFU FAM211A (11726209_a_at) / Fold change /veh FAM211A (11726209_a_at) / RFU RGS16 (11746705_a_at) / Fold change /veh RGS16 (11746705_a_at) / RFU VCAN (11755009_s_at) / Fold change /veh VCAN (11755009_s_at) / RFU RHOB (11743442_s_at) / Fold change /veh RHOB (11743442_s_at) / RFU RGS16 (11720943_a_at) / Fold change /veh RGS16 (11720943_a_at) / RFU RGS16 (11720944_at) / Fold change /veh RGS16 (11720944_at) / RFU, VPS4B / Fold change vs veh, VPS4B / RFU, CREB1 / Fold change vs veh, CREB1 / RFU, DNAJC13 / Fold change vs veh, DNAJC13 / RFU, GNAQ / Fold change vs veh, GNAQ / RFU, CDK5R1 / Fold change vs veh, CDK5R1 / RFU, ZRANB3 / Fold change vs veh, ZRANB3 / RFU, CUL4A / Fold change vs veh, CUL4A / RFU, CCNY / Fold change vs veh, CCNY / RFU, UFL1 / Fold change vs veh, UFL1 / RFU, COG3 / Fold change vs veh, COG3 / RFU, DIAPH2 / Fold change vs veh, DIAPH2 / RFU, SKA2 / Fold change vs veh, SKA2 / RFU, AFF3 / Fold change vs veh, AFF3 / RFU, LMF1 / Fold change vs veh, LMF1 / RFU, IPO11 / Fold change vs veh, IPO11 / RFU, DFFB / Fold change vs veh, DFFB / RFU, FOXP1 / Fold change vs veh, FOXP1 / RFU, CARD8 / Fold change vs veh, CARD8 / RFU, STRN3 / Fold change vs veh, STRN3 / RFU, ADK / Fold change vs veh, ADK / RFU, RASSF2 / Fold change vs veh, RASSF2 / RFU, WIPF1 / Fold change vs veh, WIPF1 / RFU, LARP1B / Fold change vs veh, LARP1B / RFU, RASA1 / Fold change vs veh, RASA1 / RFU, RB1 / Fold change vs veh, RB1 / RFU, PPFIA1 / Fold change vs veh, PPFIA1 / RFU, MAT2A / Fold change vs veh, MAT2A / RFU, CCT5 / Fold change vs veh, CCT5 / RFU, WDR92 / Fold change vs veh, WDR92 / RFU, CUX1 / Fold change vs veh, CUX1 / RFU, TTC7A / Fold change vs veh, TTC7A / RFU, TMEM135 / Fold change vs veh, TMEM135 / RFU, DEPTOR / Fold change vs veh, DEPTOR / RFU, CPM / Fold change vs veh, CPM / RFU, DNAJB6 / Fold change vs veh, DNAJB6 / RFU, CACNA2D3 / Fold change vs veh, CACNA2D3 / RFU, DTX4 / Fold change vs veh, DTX4 / RFU, TFCP2 / Fold change vs veh, TFCP2 / RFU, GMCL1 /// GMCL1P1 / Fold change vs veh, GMCL1 /// GMCL1P1 / RFU, AEBP2 / Fold change vs veh, AEBP2 / RFU, SNHG1 /// SNORD22 /// SNORD25 /// SNORD26 /// SNORD27 /// SNORD28 /// SNORD29 /// SNORD31 / Fold change vs veh, SNHG1 /// SNORD22 /// SNORD25 /// SNORD26 /// SNORD27 /// SNORD28 /// SNORD29 /// SNORD31 / Fold change (Aza/veh), C12orf56 (ProbeSet 11735607_a_at) / Fold change (ACY-1035/veh), C12orf56 (ProbeSet 11735607_a_at) / Fold change (Aza/veh), FGFR1OP (ProbeSet 11751329_s_at) / Fold change (ACY-1035/veh), FGFR1OP (ProbeSet 11751329_s_at) / Fold change (Aza/veh), VPS36 (ProbeSet 11739960_a_at) / Fold change (ACY-1035/veh), VPS36 (ProbeSet 11739960_a_at) / RFU SYPL1 (11715823_x_at) / Fold change /veh SYPL1 (11715823_x_at) / RFU IGFBP7 (11715501_s_at) / Fold change /veh IGFBP7 (11715501_s_at) / RFU REEP3 (11722064_at) / Fold change /veh REEP3 (11722064_at) / RFU IGLL1 (11728026_x_at) / Fold change /veh IGLL1 (11728026_x_at): dose or concentration left out as unconfirmed. Format: cell-based, human. To be noted: MV-4-11 cells, 48 hours.

For `Nc1ccc(-c2cccs2)cc1NC(=O)c1ccc2c(c1)cc(C1CC1)n2CCN1CCOCC1` [ACY-1035], the “RFU KRT8 (11758183_x_at)” value is given as 18.67 RFU.
